Molecules are shown by their SMILES. Where two headings read alike, the source gives them in different places.

We go through three compounds from US20180318287A1, “Imidazo[4,5-c]quinolin-2-one Compounds and Their Use in Treating Cancer” (ASTRAZENECA AB, priority 2015, published 2018).

Common to all, as to format: cell-based
For one test, the target named is T1, ATR kinase (Homo sapiens, UniProt Q13535).
T1 construct: endogenous in cells; host or cells: HT29 cells (ECACC #85061109)
Nature of the test: Assay b): ATR cellular potency (pChk1 Ser345 in HT29 cells after 4NQO). Put shortly: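 HT29 cells were preincubated with compound for 1 h at 37 °C, 5% CO2, then stimulated with 4NQO for a further 1 h; wells without 4NQO served as the null control. Cells permeabilised with 0.1% Triton X-100. Chk1 Ser345 phosphorylation imaged on ArrayScan VTI at 10× objective.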

Another test has as its target T2, ATM kinase (Homo sapiens, UniProt Q13315).
T2 construct: endogenous in cells; host or cells: HT29 cells (ECACC #85061109)
The test is described as follows: Assay a): ATM cellular potency (pATM Ser1981 in irradiated HT29 cells). In outline:
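HT29 cells pretreated with compound for 1 h at 37° C, X-ray irradiated (~600 cGy), then incubated 1 h more. Cells fixed, Triton-permeabilised and immunostained for pATM Ser1981; fluorescence quantified by ArrayScan high-content imaging.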

For a further test, the target named is T3, mTOR (Homo sapiens, UniProt P42345).
T3 construct: phosphorylation of the Akt protein at Ser473 (AKT lies downstream of PI3Kα in the signal transduction pathway) in the MDA-MB-468 cells; endogenous in cells; host or cells: MDA-MB-468 cells (ATCC HTB 132)
Nature of the test: Assay d): mTOR cellular potency (phospho-AKT Ser473 in MDA-MB-468 cells). Put shortly:
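MDA-MB-468 cells seeded 18 h, then dosed acoustically over a 12-point range for 2 h at 37°C. Fixed cells immunostained for phospho-AKT Ser473 with Alexa Fluor 488 secondary; green fluorescence read by laser-scanning cytometry, IC50 normalised to DMSO and full-inhibition reference controls.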

The target in a further test is PI3K-α (Homo sapiens, UniProt P42336). Nature of the test: Assay c): PI3K cellular potency (phospho-Akt T308 ELISA in BT474 cells). Conditions: for Assay c) PI3Ka Cell IC50: BT474 cells, phospho-Akt T308, 2 h, Table 3 comparative data. From the text: This assay was used to measure PI3K-α inhibition in cells. PDK1 was identified as the upstream activation loop kinase of protein kinase B (Akt1), which is essential for the activation of PKB. Activation of the lipid kinase phosphoinositide 3 kinase (PI3K) is critical for the activation of PKB by PDK1.
Chain of PI3K-α (P42336 whole entry, the tested form may be a part): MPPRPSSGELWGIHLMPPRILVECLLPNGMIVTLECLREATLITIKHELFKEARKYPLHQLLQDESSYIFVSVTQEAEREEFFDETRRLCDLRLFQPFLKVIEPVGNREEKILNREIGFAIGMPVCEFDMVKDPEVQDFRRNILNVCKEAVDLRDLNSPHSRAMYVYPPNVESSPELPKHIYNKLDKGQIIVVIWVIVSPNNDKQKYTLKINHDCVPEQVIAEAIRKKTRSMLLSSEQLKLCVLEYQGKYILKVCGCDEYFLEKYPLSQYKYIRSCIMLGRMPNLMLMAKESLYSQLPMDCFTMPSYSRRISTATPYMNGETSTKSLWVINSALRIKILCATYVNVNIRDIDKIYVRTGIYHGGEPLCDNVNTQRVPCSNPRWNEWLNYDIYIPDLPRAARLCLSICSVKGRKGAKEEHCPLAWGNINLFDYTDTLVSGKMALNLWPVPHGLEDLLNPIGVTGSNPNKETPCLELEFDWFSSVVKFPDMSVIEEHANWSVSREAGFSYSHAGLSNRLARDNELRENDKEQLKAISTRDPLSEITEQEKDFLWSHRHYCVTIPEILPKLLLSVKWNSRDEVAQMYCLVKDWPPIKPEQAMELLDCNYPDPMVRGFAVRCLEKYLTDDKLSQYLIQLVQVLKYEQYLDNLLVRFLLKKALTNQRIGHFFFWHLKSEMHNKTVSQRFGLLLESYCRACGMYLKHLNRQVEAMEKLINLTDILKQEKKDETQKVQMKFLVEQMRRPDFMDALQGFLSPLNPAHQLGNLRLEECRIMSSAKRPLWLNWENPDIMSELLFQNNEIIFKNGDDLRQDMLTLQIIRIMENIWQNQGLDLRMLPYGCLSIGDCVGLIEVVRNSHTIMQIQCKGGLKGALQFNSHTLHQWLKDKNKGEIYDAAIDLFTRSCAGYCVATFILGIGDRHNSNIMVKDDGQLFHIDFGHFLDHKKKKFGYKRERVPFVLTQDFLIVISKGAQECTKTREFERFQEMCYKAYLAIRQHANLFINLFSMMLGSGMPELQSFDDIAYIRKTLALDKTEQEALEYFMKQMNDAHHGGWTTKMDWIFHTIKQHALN
Chain of PI3K-α (P27986 2-724, further chain): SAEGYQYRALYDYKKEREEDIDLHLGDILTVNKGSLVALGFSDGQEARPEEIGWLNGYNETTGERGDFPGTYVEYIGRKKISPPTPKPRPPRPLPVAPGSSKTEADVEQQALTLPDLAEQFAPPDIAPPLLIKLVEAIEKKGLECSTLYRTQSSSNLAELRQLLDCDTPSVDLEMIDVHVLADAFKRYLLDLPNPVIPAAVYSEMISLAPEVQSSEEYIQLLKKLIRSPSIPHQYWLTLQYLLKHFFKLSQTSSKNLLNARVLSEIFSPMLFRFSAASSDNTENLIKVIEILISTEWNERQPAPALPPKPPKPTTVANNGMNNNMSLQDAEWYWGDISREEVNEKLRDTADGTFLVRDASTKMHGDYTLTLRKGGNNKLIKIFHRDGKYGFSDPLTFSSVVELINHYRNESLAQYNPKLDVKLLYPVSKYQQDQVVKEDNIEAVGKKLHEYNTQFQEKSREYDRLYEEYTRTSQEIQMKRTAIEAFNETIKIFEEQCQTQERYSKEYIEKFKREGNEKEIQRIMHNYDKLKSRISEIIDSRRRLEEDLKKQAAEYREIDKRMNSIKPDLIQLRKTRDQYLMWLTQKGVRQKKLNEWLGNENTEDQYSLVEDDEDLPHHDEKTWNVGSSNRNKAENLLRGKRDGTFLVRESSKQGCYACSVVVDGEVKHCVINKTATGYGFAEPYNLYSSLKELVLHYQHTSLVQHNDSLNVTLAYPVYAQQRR
Following ligand stimulation of receptor tyrosine kinases, PI3K is activated, which converts PIP2 to PIP3, which is bound by the PH domain of PDK1 resulting in recruitment of PDK1 to the plasma membrane where it phosphorylates AKT at Thr308 in the activation loop.
The aim of this cell-based mode of action assay is to identify compounds that inhibit PDK activity or recruitment of PDK1 to membrane by inhibiting PI3K activity. Phosphorylation of phospho-Akt (T308) in BT474c cells following treatment with compounds for 2 h is a direct measure of PDK1 and indirect measure of PI3K activity.
BT474 cells (human breast ductal carcinoma, ATCC HTB-20) were seeded into black 384 well plates (Costar, #3712) at a density of 5600 cells/well in DMEM containing 10% FBS and 1% glutamine and allowed to adhere overnight.
The following morning compounds in 100% DMSO were added to assay plates by acoustic dispensing. After a 2 h incubation at 37° C. and 5% CO2, the medium was aspirated and the cells were lysed with a buffer containing 25 mM Tris, 3 mM EDTA, 3 mM EGTA, 50 mM sodium fluoride, 2 mM Sodium orthovanadate, 0.27M sucrose, 10 mM β-glycerophosphate, 5 mM sodium pyrophosphate, 0.5% Triton X-100 and complete protease inhibitor cocktail tablets (Roche #04 693 116 001, used 1 tab per 50 ml lysis buffer).
After 20 minutes, the cell lysates were transferred into ELISA plates (Greiner #781077) which had been pre-coated with an anti total-AKT antibody in PBS buffer and non-specific binding was blocked with 1% BSA in PBS containing 0.05% Tween 20. Plates were incubated over night at 4° C. The next day the plates were washed with PBS buffer containing 0.05% Tween 20 and further incubated with a mouse monoclonal anti-phospho AKT T308 for 2 h. Plates were washed again as above before addition of a horse anti-mouse-HRP conjugated secondary antibody. Following a 2 h incubation at r.t., plates were washed and QuantaBlu substrate working solution (Thermo Scientific #15169, prepared according to provider's instructions) was added to each well. The developed fluorescent product was stopped after 60 minutes by addition of Stop solution to the wells. Plates were read using a Tecan Safire plate reader using 325 nm excitation and 420 nm emission wavelengths respectively. Except where specified, reagents contained in the Path Scan Phospho AKT (Thr308) sandwich ELISA kit from Cell Signalling (#7144) were used in this ELISA assay.
On the technique in general: An ELISA detects its analyte on a solid surface through an enzyme-linked reagent.

Where [1] appears, read: HT29 cells, 4NQO, pChk1 Ser345; Table 3 comparative data; read-out: Assay b) ATR Cell IC50.
[2] abbreviates: HT29 cells, X-ray irradiation, pATM Ser1981; Table 3 comparative data; read-out: Assay a) ATM Cell IC50.
The mark [3] stands for this setting: MDA-MB-468 cells, phospho-AKT Ser473, 2 h; Table 3 comparative data; read-out: Assay d) mTOR Cell IC50.

T2 sequence (Q13315 whole entry): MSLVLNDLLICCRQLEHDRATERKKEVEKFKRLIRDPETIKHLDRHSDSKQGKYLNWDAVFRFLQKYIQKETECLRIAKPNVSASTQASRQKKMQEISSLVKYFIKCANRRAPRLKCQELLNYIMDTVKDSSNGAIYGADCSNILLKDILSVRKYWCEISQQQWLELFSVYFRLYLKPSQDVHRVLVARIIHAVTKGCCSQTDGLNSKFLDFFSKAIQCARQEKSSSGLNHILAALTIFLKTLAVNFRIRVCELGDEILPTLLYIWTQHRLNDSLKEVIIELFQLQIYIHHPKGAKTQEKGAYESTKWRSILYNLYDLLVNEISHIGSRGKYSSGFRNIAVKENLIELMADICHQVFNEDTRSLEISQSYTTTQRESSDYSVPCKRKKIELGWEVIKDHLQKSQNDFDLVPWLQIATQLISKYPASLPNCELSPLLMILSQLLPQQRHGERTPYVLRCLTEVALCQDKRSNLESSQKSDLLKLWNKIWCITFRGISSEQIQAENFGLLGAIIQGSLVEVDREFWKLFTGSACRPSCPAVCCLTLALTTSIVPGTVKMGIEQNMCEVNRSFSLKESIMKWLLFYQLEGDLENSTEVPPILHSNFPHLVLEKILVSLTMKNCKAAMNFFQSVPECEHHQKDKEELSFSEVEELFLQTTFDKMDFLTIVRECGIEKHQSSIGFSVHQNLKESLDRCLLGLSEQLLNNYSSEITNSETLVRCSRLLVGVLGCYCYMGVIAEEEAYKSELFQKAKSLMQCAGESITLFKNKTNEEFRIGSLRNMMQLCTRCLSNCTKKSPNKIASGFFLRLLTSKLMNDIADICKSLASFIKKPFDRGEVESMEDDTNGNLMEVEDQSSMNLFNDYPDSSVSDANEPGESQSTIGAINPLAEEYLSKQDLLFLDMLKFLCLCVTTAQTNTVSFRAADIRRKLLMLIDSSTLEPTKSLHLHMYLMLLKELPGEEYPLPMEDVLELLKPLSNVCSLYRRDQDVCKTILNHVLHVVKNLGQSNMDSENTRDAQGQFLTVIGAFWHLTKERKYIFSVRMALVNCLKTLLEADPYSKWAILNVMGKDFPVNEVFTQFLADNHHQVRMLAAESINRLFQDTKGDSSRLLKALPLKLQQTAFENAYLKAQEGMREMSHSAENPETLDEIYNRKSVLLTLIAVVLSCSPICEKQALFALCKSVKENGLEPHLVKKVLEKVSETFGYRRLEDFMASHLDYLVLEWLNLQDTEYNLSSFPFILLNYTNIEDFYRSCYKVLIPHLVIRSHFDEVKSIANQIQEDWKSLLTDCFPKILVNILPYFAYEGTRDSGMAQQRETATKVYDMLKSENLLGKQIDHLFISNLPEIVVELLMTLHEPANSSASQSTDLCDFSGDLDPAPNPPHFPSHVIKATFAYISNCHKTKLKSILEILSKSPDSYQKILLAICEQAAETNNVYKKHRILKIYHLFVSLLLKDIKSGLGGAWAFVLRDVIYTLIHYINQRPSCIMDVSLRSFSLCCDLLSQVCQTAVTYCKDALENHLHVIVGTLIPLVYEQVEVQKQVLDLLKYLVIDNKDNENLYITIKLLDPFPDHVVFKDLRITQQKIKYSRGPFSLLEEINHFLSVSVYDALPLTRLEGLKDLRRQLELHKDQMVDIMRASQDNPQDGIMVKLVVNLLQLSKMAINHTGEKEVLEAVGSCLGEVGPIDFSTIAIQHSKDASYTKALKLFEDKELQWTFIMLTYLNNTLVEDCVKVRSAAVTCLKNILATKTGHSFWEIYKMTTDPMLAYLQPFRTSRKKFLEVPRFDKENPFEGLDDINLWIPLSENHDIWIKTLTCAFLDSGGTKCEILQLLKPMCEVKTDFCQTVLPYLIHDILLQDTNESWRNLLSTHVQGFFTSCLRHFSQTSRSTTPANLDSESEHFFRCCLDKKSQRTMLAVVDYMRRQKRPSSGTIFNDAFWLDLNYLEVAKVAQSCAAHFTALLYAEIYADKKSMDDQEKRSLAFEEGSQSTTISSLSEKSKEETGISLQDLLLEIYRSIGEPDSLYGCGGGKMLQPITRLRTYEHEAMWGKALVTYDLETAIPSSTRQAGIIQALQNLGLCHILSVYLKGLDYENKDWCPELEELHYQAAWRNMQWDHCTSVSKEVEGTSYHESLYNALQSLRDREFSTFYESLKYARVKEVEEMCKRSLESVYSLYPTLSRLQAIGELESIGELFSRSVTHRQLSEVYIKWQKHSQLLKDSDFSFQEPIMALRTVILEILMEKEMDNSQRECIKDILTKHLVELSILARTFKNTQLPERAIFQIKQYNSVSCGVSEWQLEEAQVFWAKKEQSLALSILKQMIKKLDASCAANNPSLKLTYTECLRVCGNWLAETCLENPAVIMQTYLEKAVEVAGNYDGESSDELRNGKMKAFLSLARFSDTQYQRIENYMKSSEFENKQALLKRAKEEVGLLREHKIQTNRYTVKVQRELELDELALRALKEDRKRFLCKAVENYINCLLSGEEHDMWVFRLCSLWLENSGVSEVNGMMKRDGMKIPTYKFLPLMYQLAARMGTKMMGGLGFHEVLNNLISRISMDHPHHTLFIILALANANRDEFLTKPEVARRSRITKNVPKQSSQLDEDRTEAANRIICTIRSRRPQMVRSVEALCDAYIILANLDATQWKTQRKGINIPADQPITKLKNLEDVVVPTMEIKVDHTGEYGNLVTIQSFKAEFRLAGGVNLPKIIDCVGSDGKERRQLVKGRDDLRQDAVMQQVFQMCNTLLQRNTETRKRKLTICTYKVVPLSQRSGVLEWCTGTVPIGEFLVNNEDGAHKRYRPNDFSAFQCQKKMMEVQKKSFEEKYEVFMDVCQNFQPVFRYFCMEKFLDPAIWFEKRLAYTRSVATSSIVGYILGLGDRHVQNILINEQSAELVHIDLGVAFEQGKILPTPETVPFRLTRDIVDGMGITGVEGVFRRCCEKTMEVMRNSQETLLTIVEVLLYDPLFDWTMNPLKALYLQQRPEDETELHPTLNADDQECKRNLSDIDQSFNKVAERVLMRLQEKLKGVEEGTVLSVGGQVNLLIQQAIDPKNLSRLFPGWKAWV

In general, IC50 refers to the concentration that gives 50% inhibition. As for `Cn1c(=O)n(C2CC2)c2c3cc(-c4cnc(N)nc4)ccc3ncc21` [CN102399218A Compound 64, reference compound], the IC50 on ATR kinase (setting [1]) is 162 nM; at ATM kinase (setting [2]), 216 nM; on mTOR (setting [3]) it was 287 nM. Further, at PI3K-α, the “Assay c) PI3Ka Cell IC50” value worked out at 247 nM.

With `Cn1c(=O)n(C2CC2)c2c3cc(-c4cnc5[nH]ccc5c4)ccc3ncc21` [CN102399218A Compound 62, reference compound], the IC50 at ATR kinase (setting [1]) amounted to 56.3 nM; on ATM kinase (setting [2]), 80 nM; at mTOR (setting [3]), 15.5 nM. Further, the “Assay c) PI3Ka Cell IC50” value at PI3K-α turned out to be 149 nM.

For `CN(C)CCOc1ccc(-c2ccc3ncc4c(c3c2)n([C@H]2CCCOC2)c(=O)n4C)cc1` [Example 47, 8-[4-[2-(Dimethylamino)ethoxy]phenyl]-3-methyl-1-[(3S)-tetrahydropyran-3-yl]imidazo[4,5-c]quinolin-2-one], the IC50 on ATR kinase (HT29 cells, 4NQO, pChk1 Ser345; Table 2; read-out: Assay b) ATR Cell IC50) is greater than 30000 nM; on ATM kinase (HT29 cells, X-ray irradiation, pATM Ser1981; Table 2; read-out: Assay a) ATM Cell IC50) it was 14.4 nM; on mTOR (MDA-MB-468 cells, phospho-AKT Ser473, 2 h; Table 2; read-out: Assay d) mTOR Cell IC50) it was 5530 nM; on PI3K-α (BT474 cells, phospho-Akt T308, 2 h; Table 2; read-out: Assay c) PI3Kα Cell IC50), greater than 30000 nM.
